Source: PubChem BioAssay (NCI)
“And” between values parts separate entries of the source, which are not always exact repeats. Equal entries are not always repeated.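 1) Cells in 96-well plates. 2) Compound, 48 h, 5 concentrations. 3) Linear interpolation between surrounding doses. 4) Unreached endpoint = highest concentration. Here, GI50 denotes the concentration required for 50% inhibition of growth. The concentration for full growth arrest is given as TGI.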

Columns and labels:
Assay in all cases: NCI-60 cell line screen, 48 h
CAKI-1 renal = tested on: CAKI-1 renal
IGROV1 ovarian = tested on: IGROV1 ovarian
KM12 colon = tested on: KM12 colon
MDA-MB-231 breast = tested on: MDA-MB-231 breast
NCI-H522 lung = tested on: NCI-H522 lung
NCI/ADR-RES ovarian = tested on: NCI/ADR-RES ovarian
RXF 393 renal = tested on: RXF 393 renal
SN12C renal = tested on: SN12C renal
SR leukemia = tested on: SR leukemia
U251 CNS = tested on: U251 CNS

Structure (SMILES)	GI50 (CAKI-1 renal)	TGI (CAKI-1 renal)	GI50 (IGROV1 ovarian)	TGI (IGROV1 ovarian)	GI50 (KM12 colon)	TGI (KM12 colon)	GI50 (MDA-MB-231 breast)	TGI (MDA-MB-231 breast)	GI50 (NCI-H522 lung)	TGI (NCI-H522 lung)	GI50 (NCI/ADR-RES ovarian)	TGI (NCI/ADR-RES ovarian)	GI50 (RXF 393 renal)	TGI (RXF 393 renal)	GI50 (SN12C renal)	TGI (SN12C renal)	GI50 (SR leukemia)	TGI (SR leukemia)	GI50 (U251 CNS)	TGI (U251 CNS)
CCN1C(=O)N(CC)C2C1NN=c1s/c(=C3\C(=O)N(CC(C)(C)C)c4ccccc43)c(=O)n12 (configuration not stated)	1.84 µM	22.2 µM	3.91 µM	23.6 µM	3.67 µM	18.4 µM	0.151 µM	2.29 µM	3.19 µM	18.5 µM	2.61 µM	13.3 µM	1.83 µM	12.8 µM	2.21 µM	11.3 µM	0.755 µM	41.6 µM	4.13 µM	20.6 µM
CCCCCOc1ccc(/C=N/Nc2cc(C)nc3ccc(Br)cc23)cc1	1.63 µM	2.99 µM	1.72 µM	3.37 µM	1.74 µM	3.19 µM	1.77 µM	3.41 µM	2.06 µM	4.71 µM	1.83 µM	4.19 µM	1.67 µM	3.19 µM	1.72 µM	3.27 µM	0.448 µM	2.15 µM	1.82 µM	3.39 µM
c1ccc2c(c1)c1c(c3ccccc32)CN2CCCC2C1 (configuration not stated)	–	> 100 µM	–	12 µM	–	15.7 µM	–	32.3 µM	–	9.9 µM	–	> 41.5 µM	–	9.02 µM	–	14.9 µM	–	> 100 µM	–	23.1 µM
O=C(O)c1ccc(OCc2ccccc2)c(Cl)c1	–	> 100 µM	–	> 100 µM	–	> 100 µM	–	> 100 µM	–	> 100 µM	–	> 100 µM	–	> 100 µM	–	> 100 µM	–	> 100 µM	–	> 100 µM
COCC1(CO)C(=O)C2CCN1CC2 (configuration not stated)	–	–	18.4 µM	40.6 µM	> 100 µM	> 100 µM	17.2 µM	32 µM	4.28 µM	11.7 µM	25.6 µM	> 78.6 µM	15.7 µM	30.2 µM	16.1 µM	31.1 µM	18.4 µM	58.4 µM	> 71 µM	> 100 µM
O=C(Nc1ccc(-n2ccc3c(NC(=O)c4ccccc4)nccc32)cc1)Nc1ccc(Cl)c(Cl)c1	1.65 µM	6.88 µM	1.76 µM	11 µM	0.985 µM	2.5 µM	1.23 µM	2.82 µM	1.45 µM	3.7 µM	1.31 µM	4.52 µM	0.624 µM	1.96 µM	2.01 µM	9.08 µM	0.132 µM	0.932 µM	0.373 µM	1.92 µM
C1=C\COCc2cc(ccc2OCCN2CCCC2)Nc2nccc(n2)-c2cccc(c2)COC/1	0.971 µM	4.15 µM	0.871 µM	3.85 µM	0.348 µM	3.74 µM	1.92 µM	5.61 µM	3.08 µM	5.23 µM	2.77 µM	7.35 µM	1.05 µM	2.9 µM	1.19 µM	4.92 µM	0.306 µM	1.62 µM	2.49 µM	5.21 µM
O=C(c1ccc(/C=C/c2n[nH]c3ccccc23)cc1)N1CCNCC1	4.96 µM and 1.35 µM	> 10 µM and 9.11 µM	5.32 µM and 3.14 µM	> 10 µM and 19.1 µM	–	> 10 µM and 5.35 µM	6.04 µM and 3.62 µM	> 10 µM and 18 µM	1.72 µM and 11 µM	3.52 µM and 26.5 µM	> 10 µM and 15.8 µM	> 10 µM and 36.7 µM	2.66 µM and 1.99 µM	> 10 µM and 6.94 µM	> 10 µM and 2.43 µM	> 10 µM and 19.4 µM	1.85 µM and 0.407 µM	4.23 µM and 10.3 µM	1.81 µM and 12.2 µM	3.33 µM and 27.2 µM
N#CC1=C(N)Oc2cc(O)ccc2C1c1cccc2ccccc12 (configuration not stated)	8.55 µM	27 µM	13.1 µM	29.4 µM	6.68 µM	> 100 µM	11.8 µM	30 µM	6.08 µM	19.7 µM	3.98 µM	22.8 µM	–	–	20.4 µM	58.3 µM	3.26 µM	14.8 µM	16.6 µM	43 µM
COc1ccc(-c2coc3c4c(ccc3c2=O)OCO4)cc1OC	–	> 100 µM	–	> 100 µM	–	> 100 µM	–	> 100 µM	–	> 100 µM	–	> 100 µM	–	–	–	> 100 µM	–	> 100 µM	–	> 100 µM
COc1ccc(CCNC(=O)c2ccc(NC3=C(Cl)C(=O)N(Cc4ccccc4)C3=O)cc2)cc1OC	3.04 µM	9.11 µM	–	–	23.5 µM	> 100 µM	4.52 µM	> 100 µM	4.74 µM	89.9 µM	22.3 µM	64.4 µM	7.83 µM	> 100 µM	23.9 µM	> 100 µM	1.44 µM	3.15 µM	32.8 µM	> 100 µM
